Results reported in patent US8282688B2, “Laccase mediators and methods of use” (Danisco US Inc., priority 2006, dated 2012).
Several values for one entry are separate records, joined by “and”; a condition that tells them apart may be missing. Equal entries are not always repeated.

What was measured:
Format in all cases: biochemical
[1] = test system: Thielavia laccase (Ecostone LCC10); experiment: Soluble indigo bleaching at two pH values, Thielavia laccase (Example 3)
Procedure: (§1) A saturated solution of indigo in N-methylpyrrolidone (NMP) was prepared by stirring indigo (30 mg) in NMP (10 ml) at room temperature for 5 hours. The NMP solution was diluted 10-fold into an aqueous buffer solution resulting in a blue solution. For example, dilution into 50 mM sodium acetate buffer at pH 5, or 50 mM sodium phosphate buffer at pH 7. Solutions were shaken well immediately before use.
(§2) The assay for the bleaching of the solubilized indigo substrate was performed in a 96-well microtitre plate whereby each well received the soluble indigo solution in 50 mM sodium acetate buffer at pH 5 (180 uL), laccase (10 ppm enzyme) and mediator solution (from a 20 mM stock solution in methanol). The total volume of each well was adjusted to 200 uL with deionzed water. A control containing laccase only was run in duplicate. The plate was sealed and incubated at 50° C. for 2 hours at 800 rpm on a heated agitator (Thermomixer, Eppendorf). Following this period, the plates were unsealed and a solution of ascorbic acid (20 uL of a 10% aqueous solution) added to each well in order to reduce the oxidized forms of the mediators. The extent of indigo bleaching was then assessed by determining the absorbance for each well at 600 nm using a microtitre plate reader. The lower the absorbance reading, the greater the extent of indigo bleaching.
(§3) Laccases derived from Myceliophtora (Denilite® II, Novozymes, Bagsvaerd, Denmark), Thielavia (Ecostone LCC10, AB enzymes, Darmstadt, Germany) and Cerrena sp. were assessed for their ability to bleach solubilized indigo in conjunction with low molecular weight mediators at two pH values.
(§4) Bleaching of solubilized indigo in 96-well microtitre plates was performed as described in Example 1, using 3 different laccases at pH values of 5 and 7.

[2] = test system: Myceliophtora laccase (Denilite II); experiment: Soluble indigo bleaching at two pH values, Myceliophtora laccase (Example 3)
Procedure: as §1, §2, §3, §4

[3] = test system: Thielavia sp. laccase (Ecostone LCC10); experiment: Bleaching of solubilized indigo, Thielavia sp. laccase with mediators (Example 2); conditions: laccase 10 ppm, pH 5, 50° C., 2 hours, n = 2
Procedure: An assay for the bleaching of the solubilized indigo substrate by laccase/mediator combinations was performed in a 96-well microtitre plate as follows
as §1, §2

[4] = test system: Cerrena sp. laccase; experiment: Soluble indigo bleaching at two pH values, Cerrena sp. laccase (Example 3)
Procedure: as §1, §2, §3, §4

[5] = test system: C. unicolor laccase; experiment: Bleaching of denim swatches with C. unicolor laccase (Example 4); parameters: key to ΔL Denim swatch Frontside / Δb Denim swatch Frontside / ΔL Denim swatch Backside / Δb Denim swatch Backside / Δa Denim swatch Backside / Δa Denim swatch Frontside: difference between initial and final CIE L*a*b* values; key to ΔE (total color difference) Denim swatch Backside / ΔE (total color difference) Denim swatch Frontside: ΔE = (ΔL²+Δa²+Δb²)^1/2 from CIE L*a*b* before/after bleaching; conditions: for ΔE (total color difference) Denim swatch Backside / ΔE (total color difference) Denim swatch Frontside / ΔL Denim swatch Backside / ΔL Denim swatch Frontside / Δa Denim swatch Backside / Δb Denim swatch Backside / Δb Denim swatch Frontside: laccase 20 ppm, pH 6, 50° C., 2 hours
Procedure: Denim legs (made out of sulfur bottom/indigo dyed denim fabric from Cone Mill, style number 1662P) were pretreated with IndiAge® 2XL at a dose of 1 gram per liter in a 50 lb lab scale tumbling washer. The liquor ratio was 6 to 1 (5 kg substrate in 30 liters of water) and the treatment was performed at 55° C. at pH 4.5 for 1 hour. A warm rinse followed the cellulase treatment, after which the fabric was dried in a tumble dryer. A punch press was used to cut ⅝ inch denim disks from IndiAge® 2XL pretreated denim legs. Each denim disk is pre read with a Chroma Meter CR-200 by Minolta in order to determine the CIE L*a*b* values of both the front and backside of the fabric disk.
One denim disk is placed in each well of two duplicate 12 well micro-titer plates. Each well received C. unicolor laccase (20 uL of 1/20 dilution, approx. 20 ppm), mediator (200, 100, 50 or 20 uL of a 20 mM stock solution in methanol) and 50 mM potassium phosphate buffer, pH 6 for a total volume of 2 mL/well. The mediators were methyl syringate (MS), 4-cyano-2,6-dimethoxyphenol (SN) and 3,4,5-trimethoxyphenol (TMP). The plates were sealed and incubated at 50° C. for 2 hours at 150 rpm in a standard incubator. Following this period, the swatches were removed from the plates and carefully placed on a filter paper in a Buchner funnel and washed with copious amounts of water, followed by drying of the residual water under high vacuum overnight. The swatches were then re-read with the chromometer in order to determine the CIE L*a*b* values of both the front and backside of the disk following bleaching. The total color difference (ΔE) is calculated from the difference between the initial and final CIE L*a*b* values according to the formula ΔE=(ΔL^2+Δa^2+Δb^2)^1/2 The total color differences (ΔE) as a function of mediator concentration are plotted in FIGS. 5 and 6.

**Q.** Which “ΔA600 Thielavia” value ([1]; pH 5, mediator 250 uM) does the source give for `COc1cc(C(N)=O)cc(OC)c1O` [SA, 4-carboxamido-2,6-dimethoxyphenol] here?
**A.** The value was 0.170.

**Q.** What about the “ΔA600 Thielavia” value ([1]; pH 7, mediator 250 uM) of the same molecule?
**A.** Its value is 0.162.

**Q.** What about the “ΔA600 Myceliophtora” value ([2]; pH 5, mediator 250 uM) of the same molecule?
**A.** Its value is 0.254.

**Q.** What about the “ΔA600 Myceliophtora” value ([2]; pH 7, mediator 250 uM) of the same molecule?
**A.** The value was 0.220.

**Q.** What about the “ΔA600 (change in absorbance at 600 nm relative to control)” value ([3]; mediator 50 mM Concentration (head)) of the same molecule?
**A.** The value was 0.088.

**Q.** And the “ΔA600 (change in absorbance at 600 nm relative to control)” value ([3]; mediator 500 mM Concentration (head))?
**A.** Its value is 0.170.

**Q.** What about the “ΔA600 Cerrena” value ([4]; pH 5, mediator 250 uM) of the same molecule?
**A.** Its value is 0.142.

**Q.** And the “ΔA600 Cerrena” value ([4]; pH 7, mediator 250 uM)?
**A.** Its value is 0.128.

**Q.** What does the source list for `COc1cc(C#N)cc(OC)c1O` [SN, 4-cyano-2,6-dimethoxyphenol]?
**A.** effectiveness as mediator for denim swatch bleaching ([5]; C. unicolor laccase 20 ppm, 200-2000 uM mediator): most effective mediator; ΔE (total color difference) Denim swatch Backside ([5]; mediator 200 uM): 10.39 and 10.37; ΔE (total color difference) Denim swatch Frontside ([5]; mediator 200 uM): 7.24 and 8.51; ΔL Denim swatch Backside ([5]; mediator 200 uM): 8.38 and 8.67; ΔL Denim swatch Frontside ([5]; mediator 200 uM): 6.63 and 7.98; Δa Denim swatch Backside ([5]; mediator 200 uM): 0.54 and 0.38; Δb Denim swatch Backside ([5]; mediator 200 uM): 6.12 and 5.67; Δb Denim swatch Frontside ([5]; mediator 200 uM): 2.57 and 2.67; ΔE (total color difference) Denim swatch Backside ([5]; mediator 500 uM): 13.43 and 14.11; ΔE (total color difference) Denim swatch Frontside ([5]; mediator 500 uM): 15.59 and 13.17; ΔL Denim swatch Backside ([5]; mediator 500 uM): 10.71 and 11.6; ΔL Denim swatch Frontside ([5]; mediator 500 uM): 14.46 and 12.06; Δa Denim swatch Backside ([5]; mediator 500 uM): 0.35 and 0.38; Δb Denim swatch Backside ([5]; mediator 500 uM): 8.1 and 8.03; Δb Denim swatch Frontside ([5]; mediator 500 uM): 5.51 and 4.92; ΔE (total color difference) Denim swatch Backside ([5]; mediator 1000 uM): 13.98 and 15.19; ΔE (total color difference) Denim swatch Frontside ([5]; mediator 1000 uM): 14.75 and 14.92; ΔL Denim swatch Backside ([5]; mediator 1000 uM): 11.45 and 12.1; ΔL Denim swatch Frontside ([5]; mediator 1000 uM): 13.54 and 13.84; Δa Denim swatch Backside ([5]; mediator 1000 uM): 0.07 and 0.14; Δb Denim swatch Backside ([5]; mediator 1000 uM): 8.02 and 9.19; Δb Denim swatch Frontside ([5]; mediator 1000 uM): 5.47 and 4.98; ΔE (total color difference) Denim swatch Backside ([5]; mediator 2000 uM): 15.31 and 16.59; ΔE (total color difference) Denim swatch Frontside ([5]; mediator 2000 uM): 16.03 and 14.48; ΔL Denim swatch Backside ([5]; mediator 2000 uM): 12.34 and 13.58; ΔL Denim swatch Frontside ([5]; mediator 2000 uM): 14.79 and 13.23; Δb Denim swatch Backside ([5]; mediator 2000 uM): 9.06 and 9.52; Δb Denim swatch Frontside ([5]; mediator 2000 uM): 5.8 and 5.58
